Data reported in ChEMBL document CHEMBL1201862, “PubChem BioAssay data set” (2004).
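48-hour exposure; five concentrations; linearly interpolated endpoints. GI50 marks 50% less growth.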 Active and inactive are the calls of the source. Rule as the data show it: active = GI50 up to about 1.1 µM and inactive = higher.

Key:
Test in all cases: NCI-60 cell line screen, 48 h
HL-60 = tested on: HL-60
786-0 = tested on: 786-0
EKVX = tested on: EKVX
HOP-92 = tested on: HOP-92
UACC-62 = tested on: UACC-62
A549 = tested on: A549
HT-29 = tested on: HT-29
RPMI-8226 = tested on: RPMI-8226
SK-MEL-2 = tested on: SK-MEL-2
COLO 205 = tested on: COLO 205
NCI-H460 = tested on: NCI-H460
HOP-62 = tested on: HOP-62
NCI-H226 = tested on: NCI-H226
LOX IMVI = tested on: LOX IMVI
SR = tested on: SR
NCI/ADR-RES = tested on: NCI/ADR-RES
MDA-MB-231 = tested on: MDA-MB-231
DU-145 = tested on: DU-145
MCF7 = tested on: MCF7

Measured: GI50

Cn1c(N)c(-c2c3ccccc3nc3ccccc23)c(=O)n(C)c1=O
inactive: HL-60 > 100 µM | 786-0 > 100 µM | EKVX > 100 µM | HOP-92 > 100 µM | UACC-62 > 100 µM | A549 > 100 µM | HT-29 > 100 µM | RPMI-8226 > 100 µM | SK-MEL-2 > 100 µM | COLO 205 > 100 µM

CC(C)(C)OC(=O)N1N=NC2C1C1CC(OCc3ccccc3)(OCc3ccccc3)C2O1 (stereo unspecified)
inactive: HL-60 8.02 µM | 786-0 40.8 µM | NCI-H460 > 100 µM | HOP-92 33.5 µM | UACC-62 71.4 µM | HOP-62 > 100 µM | A549 84.5 µM | HT-29 > 100 µM | NCI-H226 21.4 µM | RPMI-8226 14.1 µM | SK-MEL-2 49.2 µM | COLO 205 > 100 µM | LOX IMVI 18.1 µM

CCOC(=O)C(=O)Nc1nc2c(OCC)cccc2s1
inactive: HL-60 > 100 µM | 786-0 > 100 µM | EKVX > 100 µM | NCI-H460 > 100 µM | HOP-92 > 100 µM | UACC-62 > 100 µM | HOP-62 > 100 µM | A549 > 100 µM | HT-29 > 100 µM | NCI-H226 > 100 µM | RPMI-8226 > 100 µM | SK-MEL-2 > 100 µM | COLO 205 > 100 µM | LOX IMVI > 100 µM

O=C(Nc1cccc(NC(=O)c2cc(=O)c3ccccc3o2)n1)c1cc(=O)c2ccccc2o1
inactive: HL-60 32.3 µM | 786-0 > 100 µM | EKVX 57.4 µM | NCI-H460 40.4 µM | HOP-92 17.3 µM | UACC-62 6.75 µM | HOP-62 90.8 µM | A549 53.6 µM | RPMI-8226 23.3 µM | SK-MEL-2 > 100 µM | COLO 205 74.3 µM | LOX IMVI 6.1 µM

CS(=O)(=O)CSCSSCS(C)(=O)=O
inactive: HL-60 21.1 µM | 786-0 20.1 µM | EKVX > 100 µM | NCI-H460 26.2 µM | HOP-92 27.7 µM | UACC-62 20.7 µM | HOP-62 51.8 µM | A549 > 100 µM | HT-29 > 59.7 µM | NCI-H226 > 100 µM | RPMI-8226 20.4 µM | SK-MEL-2 21.2 µM | COLO 205 18.2 µM | LOX IMVI 13.6 µM | SR 16.5 µM

N#CC(/C(=N/NC(=O)C(=O)NN)C(=O)Nc1nc([N+](=O)[O-])cs1)c1ccc(Cl)cc1 (stereo unspecified)
inactive: HL-60 > 100 µM | 786-0 > 100 µM | EKVX > 100 µM | NCI-H460 > 100 µM | HOP-92 > 100 µM | UACC-62 56.5 µM | HOP-62 > 100 µM | A549 > 100 µM | HT-29 > 100 µM | NCI-H226 > 100 µM | RPMI-8226 > 100 µM | SK-MEL-2 > 100 µM | COLO 205 > 100 µM | LOX IMVI > 100 µM

Oc1ccc(O)c(-n2cccn2)c1
inactive: HL-60 18.7 µM | 786-0 62.1 µM | EKVX > 100 µM | NCI-H460 > 100 µM | HOP-92 45.9 µM | UACC-62 50.4 µM | HOP-62 > 100 µM | A549 > 100 µM | HT-29 65.9 µM | RPMI-8226 25.6 µM | SK-MEL-2 37 µM | COLO 205 23 µM | LOX IMVI 52.7 µM

COc1ccc(CNc2nc3ccccc3nc2-c2cccs2)cc1OC
inactive: HL-60 22 µM | 786-0 33.5 µM | EKVX 59 µM | NCI-H460 20.8 µM | HOP-92 13.4 µM | HOP-62 > 100 µM | A549 16.2 µM | HT-29 46.2 µM | NCI-H226 68.5 µM | RPMI-8226 72.3 µM | SK-MEL-2 63.7 µM | COLO 205 9.98 µM | SR 15.5 µM

Cc1ccccc1NC(=O)C(=O)C(c1cnc2ccc([N+](=O)[O-])cc2n1)[N+](=O)[O-] (stereo unspecified)
inactive: HL-60 24.9 µM | 786-0 > 100 µM | EKVX > 100 µM | NCI-H460 > 100 µM | HOP-92 > 100 µM | UACC-62 51.5 µM | HOP-62 > 100 µM | A549 > 100 µM | HT-29 > 100 µM | NCI-H226 > 100 µM | RPMI-8226 31.7 µM | SK-MEL-2 > 100 µM | COLO 205 > 100 µM | LOX IMVI > 100 µM | SR > 100 µM

O=C(O)c1cc(-c2ccccc2O)nc2ccccc12
inactive: 786-0 > 100 µM | EKVX > 100 µM | NCI-H460 > 100 µM | UACC-62 > 100 µM | HOP-62 > 100 µM | A549 > 100 µM | HT-29 > 100 µM | RPMI-8226 > 100 µM | SK-MEL-2 > 100 µM | COLO 205 > 100 µM

CC1=C2CCCC2=C/C(=N/Nc2ccc([N+](=O)[O-])cc2[N+](=O)[O-])CC1
inactive: HL-60 > 100 µM | 786-0 > 100 µM | EKVX > 100 µM | NCI-H460 > 100 µM | HOP-92 > 100 µM | UACC-62 > 100 µM | HOP-62 > 100 µM | A549 > 100 µM | HT-29 > 100 µM | NCI-H226 > 100 µM | RPMI-8226 > 100 µM | SK-MEL-2 27.9 µM | COLO 205 > 100 µM | LOX IMVI > 100 µM | SR > 100 µM

N#C/C1=C(\N)CCSSSC1
inactive: HL-60 > 10 µM | 786-0 35.8 µM | EKVX 45.9 µM | NCI-H460 23.6 µM | HOP-92 32.1 µM | HOP-62 29.2 µM | A549 45.2 µM | HT-29 31 µM | NCI-H226 33.6 µM | RPMI-8226 44.8 µM | SK-MEL-2 25.8 µM | COLO 205 30.7 µM | LOX IMVI 42.4 µM | SR 33.7 µM

CCOC(=O)CC1NC(=O)CS1 (stereo unspecified)
inactive: HL-60 > 100 µM | 786-0 45.8 µM | EKVX > 100 µM | NCI-H460 60.4 µM | HOP-92 > 100 µM | UACC-62 > 100 µM | HOP-62 > 100 µM | A549 > 100 µM | HT-29 > 100 µM | NCI-H226 12.6 µM | RPMI-8226 26.8 µM | COLO 205 4.39 µM

C#CCN(C)C(=O)N(CC#C)N=O
inactive: HL-60 > 100 µM | 786-0 > 100 µM | EKVX > 100 µM | NCI-H460 > 100 µM | HOP-92 > 100 µM | UACC-62 > 100 µM | HOP-62 > 100 µM | A549 > 100 µM | HT-29 > 100 µM | RPMI-8226 > 100 µM | SK-MEL-2 > 100 µM | COLO 205 > 100 µM | LOX IMVI > 100 µM

CCc1cc(Cc2cc(CC)c(NC(=O)C3=CC(=O)CC(c4ccc(OC)cc4)O3)c(CC)c2Cl)c(Cl)c(CC)c1NC(=O)C1=CC(=O)CC(c2ccc(OC)cc2)O1 (stereo unspecified)
inactive: HL-60 23.2 µM | 786-0 18.4 µM | EKVX 30.5 µM | NCI-H460 17.7 µM | HOP-92 20.8 µM | UACC-62 23.8 µM | HOP-62 22.2 µM | A549 23.9 µM | HT-29 20.2 µM | NCI-H226 24.8 µM | RPMI-8226 15.5 µM | SK-MEL-2 17.3 µM | COLO 205 17.8 µM | LOX IMVI 18.1 µM | SR 22.5 µM

Cc1ccc(S(=O)(=O)n2cc(/C=C/C#N)c(/C=C/C#N)c2)cc1
inactive: HL-60 25.5 µM | 786-0 > 100 µM | EKVX 85.1 µM | NCI-H460 > 100 µM | HOP-92 24.8 µM | UACC-62 48.9 µM | HOP-62 > 100 µM | A549 63.8 µM | HT-29 > 100 µM | RPMI-8226 > 100 µM | SK-MEL-2 74.3 µM | COLO 205 > 100 µM | LOX IMVI 56.6 µM

C=Cc1nc2nnc(CCCCCCCCc3nnc4nc(C=C)[nH]n34)n2[nH]1
inactive: HL-60 34 µM | NCI/ADR-RES 63.1 µM | 786-0 80.9 µM | EKVX 61.5 µM | NCI-H460 57.8 µM | MDA-MB-231 95.5 µM | HOP-62 > 100 µM | A549 51.8 µM | HT-29 > 100 µM | NCI-H226 > 100 µM | DU-145 > 100 µM | SK-MEL-2 > 100 µM | COLO 205 > 100 µM | LOX IMVI 93.5 µM | MCF7 80.7 µM

Cc1nnc2n1N=C(c1ccc(-c3ccc([N+](=O)[O-])cc3)o1)CS2
inactive: HL-60 > 100 µM | 786-0 > 100 µM | NCI-H460 > 100 µM | HOP-92 > 100 µM | UACC-62 > 100 µM | HOP-62 > 100 µM | A549 > 100 µM | NCI-H226 > 100 µM | RPMI-8226 > 100 µM | SK-MEL-2 > 100 µM | COLO 205 > 100 µM | LOX IMVI > 100 µM | SR > 100 µM

NC(=O)c1cccc(C2OC(COP(=O)(O)O)C(O)C2O)c1 (stereo unspecified)
inactive: HL-60 20.7 µM | 786-0 21.7 µM | EKVX > 50 µM | NCI-H460 > 50 µM | UACC-62 > 50 µM | HOP-62 > 50 µM | A549 > 50 µM | HT-29 > 50 µM | NCI-H226 32.9 µM | RPMI-8226 > 50 µM | SK-MEL-2 > 50 µM | COLO 205 > 50 µM | LOX IMVI > 50 µM

CC(=O)O[C@H]1CCN2C(=O)C=CC(OCc3ccccc3)C12 (stereo partly specified)
inactive: HL-60 > 100 µM | 786-0 > 100 µM | EKVX > 100 µM | NCI-H460 > 100 µM | HOP-92 > 100 µM | UACC-62 > 100 µM | HOP-62 > 100 µM | A549 > 100 µM | HT-29 > 100 µM | NCI-H226 > 100 µM | RPMI-8226 > 100 µM | SK-MEL-2 > 100 µM | COLO 205 > 100 µM | LOX IMVI > 100 µM
